We go through two compounds from patent US10967047B2, “Mitochondrial antiviral-signaling (MAVS) polypeptides and detection and use thereof” (University of Vermont and State Agricultural College, priority 2016, dated 2021).

Assay [1] relates to MAVS. Briefly: MAVS oligomerization in human PBMC and plasma (semi-denaturing agarose gel electrophoresis). It counts as cell-based. As for the experimental part:
MAVS-deficient and matching WT MEFs, gift of Z. J. Chen (Z. J. Chen et al. (2005) Cell 122, 669-682), were maintained in Dulbecco's modified Eagle's medium (DMEM) (Hyclone), supplemented with 10% heat-inactivated fetal calf serum (FCS) (Hyclone), 100 mM L-glutamine (Cellgro Mediatech), and 10,000 units/mL penicillin/10 mg/mL streptomycin sulfate (Life Technologies). C57BL6 or B6; 129-Mavstm1Zjc/J mice (The Jackson Laboratory, Bar Harbor, Me.) were maintained at the University of Vermont under a protocol approved by the Institutional Animal Care and Use Committee. Murine BMDCs were prepared as described by Inaba et al. (K. Inaba et al., (1992) Journal of Experimental Medicine 176, 1693-1702). In brief, cells derived from femur bone marrow were cultured at a density of 5×10^5/mL in 10-cm plates in RPMI 1640 (HyClone), supplemented with 5% heat-inactivated FCS, 100 mmol L-glutamine, 100 mmol sodium pyruvate, 10,000 units/mL penicillin/10 mg/mL streptomycin sulfate, 5×10^−5 mol 2-mercaptoethanol (Sigma, St. Louis, Mo.), and 10 μg/mL GM-CSF (Life Technologies). Human subjects were enrolled under a protocol approved by the University of Vermont Institutional Review Board. Samples from 17 SLE patients fulfilling the American College of Rheumatology diagnostic criteria were studied (E. M. Tan et al., (1982) Arthritis and Rheumatism 25, 1271-1277). 16 out of 17 patients were female, and the age of study participants was 47±3. The disease activity was assessed by the SLE disease activity index (SLEDAI) scores, ranging from 0 to 10 (C. Bombardier et al., (1992) Arthritis and Rheumatism 35, 630-640). Upon informed consent, primary human PBMCs were obtained from heparinized whole-blood samples from SLE patients. Control PBMCs were generated from age-, sex-, and ethnicity-matched healthy subjects. PBMCs were isolated using standard Ficoll gradient centrifugation as previously described (R. Mallone et al., (2011) Clin. and Exp. Immunol. 163, 33-49). Cells were either used immediately to prepare lysates for immunoblotting or cultured at a density of 5×10^5/mL in a 12-well culture plate with RPMI 1640 (HyClone), supplemented with 5% heat-inactivated FCS, 100 mmol L-glutamine, 100 mmol sodium pyruvate, and 10,000 units/mL penicillin/10 mg/mL streptomycin sulfate. Enriched monocytes from PBMCs were used to prepare hDCs using negative magnetic bead selection (Miltenyi), and were subsequently cultivated for 6 d in 10 μg/mL GM-CSF and 500 U/mL IL-4. All cells were maintained in a humidified chamber at 37° C. and 5% CO2.
SDD-AGE was performed according to a published protocol with minor modifications (Alberti et al., (2009) Cell 137, 146-158). In brief, mitochondria were resuspended in sample buffer (0.5×TBE, 10% glycerol, 2% SDS, and 0.0025% bromophenol blue) and loaded onto a vertical 1.5% agarose gel. After electrophoresis in the running buffer (1×TBE and 0.1% SDS) for 35 min with a constant voltage of 75 V at 4° C., proteins were transferred to PVDF membranes using a Trans-Blot Turbo Transfer System (BioRad) for immunoblotting.
PVDF membranes were blocked in 5% solution of nonfat powdered milk in Tris-buffered saline. Antibodies used were specific for MAVS and Actin (Santa Cruz); RIPK1 and TRAF2 (BD Biosciences); TANK, TRADD, RIG-I, and GAPDH (Cell Signaling); MDAS and COX4 (Abcam), Alexa 488 (Life Technologies), and IRF3 (Thermo Fisher), respectively. […] Chemiluminescence was detected and recorded using a Biorad Chemidoc instrument. […]

Assay [2] concerns MAVS. The experiment in a line: MAVS oligomerization in purified MEF mitochondria, with or without SLE patient-derived MAVS oligomers. More on the design: species or system mouse. As for the experimental part:
MAVS antibody was covalently coupled to protein G magnetic beads (Life Technologies) using the bi-functional amine-reactive cross-linker disuccinimidyl suberate (DSS; Thermo Scientific). To avoid a sample contamination with proteins or protein complexes that nonspecifically bind to protein G, plasma samples were pre-incubated with protein G magnetic beads without the cross-linked MAVS antibody. SLE patient plasma were incubated for 6 hours, after which the magnetic beads were loaded onto a column in a magnetic field and extensively washed. After the beads were eluted, MAVS-oligomers were released from MAVS-antibody by way of increasing ionic strength buffer, lower pH and gel filtration. Functionally intact mitochondria from cultured cells were isolated as described earlier (S. Schmitt et al., (2013) Analytical biochemistry 443, 66-74). This method comprises a mechanical cell rupture, followed by a precipitation of mitochondria from cell lysates using magnetically labeled anti-TOM22 (Miltenyi Biotec) antibody. […] The reaction mixtures were centrifuged at 10,000×g for 10 min, and the precipitates then analyzed using SDD-AGE.

The subject of assay [3] is MEFs. Briefly: IFN-I and IL-6 cytokine secretion by ELISA in MEF culture supernatants. The format is cell-based, mouse. As for the experimental part:
ELISA was used to measure cytokine concentration in supernatant from cultured MEFs and BMDCs, and in sera of SLE patients and healthy control subjects. For assays, samples were centrifuged and IFN-β and IL-6 levels were measured in triplicate using murine or human ELISA kits according to the manufacturer's instructions. (PBL Biosciences). The fold change in IFN-I or IL-6 cells was calculated by directly comparing mock versus virus or chemical inducer of ROS.
A general note: An ELISA detects its analyte on a solid surface through an enzyme-linked reagent.

Consider `COC1=C(OC)C(=O)C(CCCCCCCCCC[P+](c2ccccc2)(c2ccccc2)c2ccccc2)=C(C)C1=O.CS(=O)(=O)[O-]` [MitoQ, [10-(4,5-Dimethoxy-2-methyl-3,6-dioxo-1,4-cyclohexadien-1-yl)decyl](triphenyl)phosphonium methanesulfonate], for which the “GOx-induced MAVS oligomerization in PBMCs after pretreatment” value in assay [1] (healthy-donor PBMCs pretreated with MitoQ or grown in presence of β-Me, then GOx (FIG. 4A)) is listed as “MAVS oligomerization did not occur”. Further, the “MAVS oligomerization induced by SLE plasma MAVS oligomers in isolated mitochondria” value in assay [2] (mitochondria pretreated with MitoQ (FIG. 6C, lane 4)) is reported as “significantly decreased”. In assay [3] (MEF with or without MitoQ, GOx or SINV (FIG. 3D)), the “IFN-I secretion with MitoQ” value was “reduced IFN-I secretion”.

On to glucose oxidase [GOx], for which, in assay [1] (healthy-donor PBMCs treated with GOx (FIG. 4A)), the “induction of MAVS oligomerization in PBMCs” value was “induced pronounced MAVS oligomerization”. Besides, the “induction of MAVS oligomerization in purified mitochondria” value in assay [2] (GOx treatment, positive control (FIG. 6C, lane 2)) is recorded as “induced MAVS oligomerization”. For the same compound, the “IFN-I secretion induced by the substance” value in assay [3] (MAVS-WT MEFs, not observed in MAVS-KO (FIG. 2E, 2J)) was “increased secretion”. Also, in assay [3] (MAVS-WT MEFs, not observed in MAVS-KO (FIG. 2F, 2K)), the “IL-6 secretion induced by the substance” value is on record as “increased secretion”.
